Data as given in paper PMC9959589, “Use of a Longer Aglycon Moiety Bearing Sialyl α(2→3) Lactoside on the Glycopolymer for Lectin Evaluation” (Polymers, 2023).

Molecular target: T1, Wheat germ agglutinin (WGA)
T1 construct: gene WGA1; commercial native lectin from wheat germ (J-Oil Mills)
Experiment: intrinsic tryptophan fluorescence titration, Hill plot
Type: binding, Triticum aestivum
Conditions: 0.65 μM WGA, 50 mM Tris-HCl, 1.25 M NaCl, 25 mM CaCl2, pH 7.5, 4 °C; excitation 295 nm, emission 348 nm (buffer as given for 10b, same procedure); read-out: K a / (×10^5 M^-1) (converted)
Excerpt: intrinsic tryptophan fluorescence titration, Hill plot on Wheat germ agglutinin (WGA)

C=CC(=O)NCCOCCOCCOCCOCCOCCOCCOCCOCCO[C@@H]1O[C@H](CO)[C@@H](O[C@@H]2O[C@H](CO)[C@H](O)[C@H](O[C@]3(C(=O)O)C[C@H](O)[C@@H](NC(C)=O)[C@H]([C@H](O)[C@H](O)CO)O3)[C@H]2O)[C@H](O)[C@H]1O [compound 9, 28-Oxo-3,6,9,12,15,18,21,24-octaoxa-27-azatriacont-29-en-1-yl (5-Acetamido-3,5-dideoxy-D̿ -glycero-α-D̿ -galacto-2-nonulopyranosyl)-(2→3)-O-(β-D̿ -galactopyranosyl)-(1→4)-β-D̿ -glucopyranoside]
Kd: 31.2 µM
